From patent publication US10463700B2, “Use of propolis for combating the side effects of chemotherapy” (POLLENERGIE, priority 2013, dated 2019)

System: progenerating CD34+ stock cells obtained from human bone marrow
Test: Cytolysis of CD34+ progenerating stock cells after chemotherapy treatment (SYTOX green)
Type: cell-based
Details: propolis 0 μg/ml (Control)
Method: The objective of the test is to evaluate the effect of the propolis on the cytolysis of progenerating CD34+ stock cells obtained from human bone marrow following the application of chemotherapy treatment (epirubicin and taxotere).
The culture medium that is used is as follows: IMDM, 15 SVF, SCF (50 ng/ml), TPO (50 ng/ml), FK (50 ng/ml).
The test protocol is described below.
On D3: thawing and seeding with 50,000 cells/ml in a flask ([…])
On D0: marking and seeding with 6,000 cells/well in a 96-well plate
Between D0 and D4: • Treatment of cells with a propolis extract (Example 1) between D0 and D3 with the following doses: 0, 0.5, 1, 4, 10 and 20 μg/ml • Treatment of cells with chemotherapy agents (epirubicin at […] and taxotere […]) between D1 and D3
On D5: Marking with 5 nM of SYTOX green, and measurement of cytolysis.
The obtained results that are presented in the table below provide the percentage of CD34+ progenerating stock cells that is cytolyzed on D5.

SMILES | percentage of CD34+ progenerating stock cells that is cytolyzed on D5 (Epirubicin 4.74.10^6 M D1-D3 alone) [%] | percentage of CD34+ progenerating stock cells that is cytolyzed on D5 (Taxotere 2.80.10^6 M D1-D3 alone) [%]
COc1cccc2c1C(=O)c1c(O)c3c(c(O)c1C2=O)C[C@@](O)(C(=O)CO)C[C@@H]3O[C@H]1C[C@H](N)[C@@H](O)[C@H](C)O1 [Epirubicin] | 53.93 | –
CC(=O)O[C@@]12CO[C@@H]1C[C@H](O)[C@@]1(C)C(=O)[C@H](O)C3=C(C)[C@@H](OC(=O)[C@H](O)[C@@H](NC(=O)OC(C)(C)C)c4ccccc4)C[C@@](O)([C@@H](OC(=O)c4ccccc4)[C@H]21)C3(C)C [Taxotere] | – | 65.47
